Reference: ChEMBL document CHEMBL4390705, “A new lateral root growth inhibitor from the sponge-derived fungus Aspergillus sp. LS45” (Bioorg Med Chem Lett, 2019)
Activity calls are given as the source filed them. The calls are words filed in the database; no cut-off is given here.

Key:
Arabidopsis thaliana [1] = test: Inhibition of seed germination in Arabidopsis thaliana Columbia-0 assessed as reduction in lateral root growth up to 100 uM incubated for 10 days under 16 hrs-light/8 hrs-dark condition by microscopic analysis; format: functional, organism-based
Arabidopsis thaliana [2] = test: Inhibition of seed germination in Arabidopsis thaliana Columbia-0 assessed as reduction in primary root growth up to 100 uM incubated for 10 days under 16 hrs-light/8 hrs-dark condition by microscopic analysis; format: functional, organism-based
CCRF-CEM = test: Cytotoxicity against human CCRF-CEM cells by MTT assay; format: functional, cell-based
K562 = test: Cytotoxicity against human K562 cells by MTT assay; format: functional, cell-based
BGC-823 = test: Cytotoxicity against human BGC823 cells by MTT assay; format: functional, cell-based
AGS = test: Cytotoxicity against human AGS cells by MTT assay; format: functional, cell-based
HCT-116 = test: Cytotoxicity against human HCT116 cells by MTT assay; format: functional, cell-based
MDA-MB-231 = test: Cytotoxicity against human MDA-MB-231 cells by MTT assay; format: functional, cell-based
Acetylcholinesterase = target: T1, Acetylcholinesterase (Mus musculus, UniProt P21836); test: Inhibition of mouse brain homogenate AChE using acetylthiocholine iodide as substrate measured after 15 mins in presence of BChE inhibitor methopropazine hydrochloride by DTNB reagent based colorimetric method; format: tissue-based
T1 sequence (P21836 whole entry): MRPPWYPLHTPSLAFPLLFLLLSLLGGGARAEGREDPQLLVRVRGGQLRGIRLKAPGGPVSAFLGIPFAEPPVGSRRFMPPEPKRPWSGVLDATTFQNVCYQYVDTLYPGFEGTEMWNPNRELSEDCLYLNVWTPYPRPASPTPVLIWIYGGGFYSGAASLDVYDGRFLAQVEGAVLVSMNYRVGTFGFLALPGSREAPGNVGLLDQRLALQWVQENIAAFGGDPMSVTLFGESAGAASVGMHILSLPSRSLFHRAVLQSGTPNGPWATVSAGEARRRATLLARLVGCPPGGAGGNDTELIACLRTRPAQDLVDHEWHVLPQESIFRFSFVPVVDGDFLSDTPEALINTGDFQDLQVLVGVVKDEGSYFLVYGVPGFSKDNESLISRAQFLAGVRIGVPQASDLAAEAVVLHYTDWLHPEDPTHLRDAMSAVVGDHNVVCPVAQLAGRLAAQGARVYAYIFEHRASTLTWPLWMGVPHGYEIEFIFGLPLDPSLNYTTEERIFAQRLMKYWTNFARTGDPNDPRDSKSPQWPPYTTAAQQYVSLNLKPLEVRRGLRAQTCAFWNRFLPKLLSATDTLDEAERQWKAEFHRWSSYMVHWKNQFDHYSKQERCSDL

Arabidopsis thaliana [3] = test: Inhibition of seed germination in Arabidopsis thaliana Columbia-0 assessed as reduction in lateral root growth at 50 to 100 uM incubated for 10 days under 16 hrs-light/8 hrs-dark condition by microscopic analysis; format: functional, organism-based
Arabidopsis thaliana [4] = test: Inhibition of seed germination in Arabidopsis thaliana Columbia-0 assessed as reduction in primary root growth at 50 uM incubated for 10 days under 16 hrs-light/8 hrs-dark condition by microscopic analysis; format: functional, organism-based
Arabidopsis thaliana [5] = test: Inhibition of seed germination in Arabidopsis thaliana Columbia-0 assessed as reduction in primary root growth at 100 uM incubated for 10 days under 16 hrs-light/8 hrs-dark condition by microscopic analysis; format: functional, organism-based

Row | SMILES | inhibition (Arabidopsis thaliana [1]) | inhibition (Arabidopsis thaliana [2]) | IC50 (CCRF-CEM) [µM] | IC50 (K562) [µM] | IC50 (BGC-823) [µM] | IC50 (AGS) [µM] | IC50 (HCT-116) [µM] | IC50 (MDA-MB-231) [µM] | IC50 (Acetylcholinesterase) [µM] | inhibition (Arabidopsis thaliana [3]) | inhibition (Arabidopsis thaliana [4]) | inhibition (Arabidopsis thaliana [5])
1 | CCCC1=C/C(=C\[C@H](O)[C@@H](C)O)OC1=O | inactive | inactive | > 50 | > 50 | > 50 | > 50 | > 50 | > 50 | > 200 |  |  | 
2 | CCCC1=C/C(=C/[C@H](O)[C@@H](C)O)OC1=O |  |  | > 50 | > 50 | > 50 | > 50 | > 50 | > 50 | > 200 | Active | Active | inactive
3 | Nc1cc(F)ccc1NC(=O)c1ccc(CNC(=O)/C=C/c2cccnc2)cc1 [TUCIDINOSTAT] |  |  | 0.63 | 1.34 |  |  |  |  |  |  |  | 
4 | CC(C)c1ccc(CO)c2ccc(C(=O)O)cc12 |  |  | 13.8 | 12.9 |  |  |  |  | > 200 | Active | Active | inactive
5 | CC[C@H](O)c1oc(=O)cc(OC)c1C | inactive | inactive | > 50 | > 50 | > 50 | > 50 | > 50 | > 50 | > 200 |  |  | 
